# Reference: patent US11407736B2 (priority 2019, dated 2022)
# Structures can show the parent of a compound that is named as a salt. Where two headings read alike, the source gives them in different places.
# What was measured:
# RIPK1 = RIPK1 (Homo sapiens (Human), UniProt Q13546); experiment: RIPK1 ADP-Glo biochemical kinase assay
# Protocol: The final reaction volume was 5.0ul.
# Adding 5 μl of ADP-Glo™ terminated the reaction.
# L929 cells = experiment: L929 cell necroptosis assay (TNFa + zVAD, CellTiter-Glo); assay type: cell-based, murine
# Protocol: (§1) In this example, U937 and L929 cells were exposed to compounds of the present disclosure and a cell necroptosis assay was conducted to evaluate the compounds' activity against human RIP1 and murine RIP1.
# U937 and L929 cells were obtained from the American Type Culture Collection (Manassa, Va., USA). Both cells were maintained in logarithmic growth phase in complete RPMI 1640 media (Sigma, ST Louis, Mo., USA) supplemented with 10% fetal bovine serum (Sigma, ST Louis, Mo., USA) at 37° C. with 5% CO2. For necroptosis assay, L929 cells were plated for 18 h in 100 μL/well medium at 10K cells/well in Costar 96-well black clear-bottom plates (Fisher Scientific, Hampton, N.H., USA); U937 cells were plated on the day of the assay in 50 4/well medium containing 60 uM zVAD-fink (Lonza, Basel, Switzerland) at 50K cells/well. Medium from L929 cells were removed from the 96-well plates and replaced with 50 μL/well new medium containing 40 uM zVAD-fink. Each compound of the present disclosure evaluated in this example was serially diluted in DMSO from 2.5 mM in 4-fold dilutions, and then diluted 1:125 in complete medium. 50 μL/well 2× of the compound was then added to the cells in the plates. […] The relative amount of necroptosis cells was determined by luminescent using a Wallac Victor2 Luminometer (PerkinElmer, Waltham, Mass., USA) and a CellTiter-Glo® Luminescent Cell Viability Reagent Assay (Promega, Madison, Wis., USA) added per manufacturer instructions after 18 hours of TNFa stimulation at 37° C. with 5% CO2.
# U937 cells = experiment: U937 cell necroptosis assay (TNFa + zVAD, CellTiter-Glo); assay type: cell-based, human
# Protocol: as §1
# U937 and L929 cells were obtained from the American Type Culture Collection (Manassa, Va., USA). Both cells were maintained in logarithmic growth phase in complete RPMI 1640 media (Sigma, ST Louis, Mo., USA) supplemented with 10% fetal bovine serum (Sigma, ST Louis, Mo., USA) at 37° C. with 5% CO2. For necroptosis assay, L929 cells were plated for 18 h in 100 μL/well medium at 10K cells/well in Costar 96-well black clear-bottom plates (Fisher Scientific, Hampton, N.H., USA); U937 cells were plated on the day of the assay in 50 4/well medium containing 60 uM zVAD-fink (Lonza, Basel, Switzerland) at 50K cells/well. Medium from L929 cells were removed from the 96-well plates and replaced with 50 μL/well new medium containing 40 uM zVAD-fink. Each compound of the present disclosure evaluated in this example was serially diluted in DMSO from 2.5 mM in 4-fold dilutions, and then diluted 1:125 in complete medium. 50 μL/well 2× of the compound was then added to the cells in the plates. The cells were pre-incubated with the compound for 1 hour at 37° C. with 5% CO2 and before addition of 10 μL/well 1 1×TNFa (Peprotech, Rocky Hill, N.J., USA) to give a final concentration of 2 ng/mL for TNFa. The relative amount of necroptosis cells was determined by luminescent using a Wallac Victor2 Luminometer (PerkinElmer, Waltham, Mass., USA) and a CellTiter-Glo® Luminescent Cell Viability Reagent Assay (Promega, Madison, Wis., USA) added per manufacturer instructions after 18 hours of TNFa stimulation at 37° C. with 5% CO2. This example establishes that embodiments of the compounds described herein have unexpectedly potent activity against human RIP1 and murine RIP1, which allows their assessment in in vivo mouse models of disease.
# [1] = read-out: RIPK1 ADP-Glo Kinase (IC50)
# [2] = Mus musculus, L929, L929 cells, TNFa + zVAD, read-out: L929-CTG-recovery, L929, TNFa + zVAD (IC50)
# [3] = Homo sapiens, U-937, U937 cells, TNFa + zVAD, read-out: U937 Zvad TNF CTG Recovery, U937, TNFa + zVAD (IC50)
# Chain of RIPK1 (Q13546 whole entry, species assumed): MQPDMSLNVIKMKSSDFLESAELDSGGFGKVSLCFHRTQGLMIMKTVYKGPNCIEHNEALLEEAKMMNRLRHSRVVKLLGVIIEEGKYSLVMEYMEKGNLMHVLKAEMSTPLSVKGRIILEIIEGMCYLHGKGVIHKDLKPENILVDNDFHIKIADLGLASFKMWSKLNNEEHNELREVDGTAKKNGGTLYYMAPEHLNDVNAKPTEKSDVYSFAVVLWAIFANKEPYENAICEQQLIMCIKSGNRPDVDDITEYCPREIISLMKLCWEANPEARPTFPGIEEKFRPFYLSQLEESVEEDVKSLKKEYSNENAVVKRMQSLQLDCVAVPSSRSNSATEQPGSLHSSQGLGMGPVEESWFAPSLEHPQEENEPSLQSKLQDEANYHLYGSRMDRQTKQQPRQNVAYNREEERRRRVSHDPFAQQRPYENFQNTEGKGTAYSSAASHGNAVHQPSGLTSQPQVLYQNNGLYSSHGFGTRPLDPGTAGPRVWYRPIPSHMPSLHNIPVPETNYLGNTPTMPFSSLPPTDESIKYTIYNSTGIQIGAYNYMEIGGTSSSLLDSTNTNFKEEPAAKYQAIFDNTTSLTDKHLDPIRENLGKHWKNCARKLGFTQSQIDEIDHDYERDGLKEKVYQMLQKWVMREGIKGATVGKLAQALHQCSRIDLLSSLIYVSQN
SMILES,IC50 (RIPK1; [1]),IC50 (L929 cells; [2]),IC50 (U937 cells; [3]),"IC50 (L929 cells; Mus musculus, L929, read-out: L929-CTG-recovery, L929, TNFa + zVAD (IC50), L929 cells, TNFa + zVAD)","IC50 (U937 cells; Homo sapiens, U-937, read-out: U937 Zvad TNF CTG Recovery, U937, TNFa + zVAD (IC50), U937 cells, TNFa + zVAD)","IC50 (L929 cells; L929 cells, TNFa + zVAD, read-out: L929-CTG-recovery, L929, TNFa + zVAD (IC50))","IC50 (U937 cells; U937 cells, TNFa + zVAD, read-out: U937 Zvad TNF CTG Recovery, U937, TNFa + zVAD (IC50))",IC50 (RIPK1)
"CN1C(=O)[C@@H](NC(=O)c2cc(Oc3ccccc3F)ccn2)COc2ccc(C#CC(C)(C)C)cc21 [Compound I-102, (S)—N-(7-(3,3-dimethylbut-1-yn-1-yl)-5-methyl-4-oxo-2,3,4,5-tetrahydrobenzo[b][1,4]oxazepin-3-yl)-4-(2-fluorophenoxy)picolinamide]",383 nM,397 nM,27.3 nM,,,,,
"CN1C(=O)[C@@H](NC(=O)c2cc(Oc3ccc(F)cc3)ccn2)COc2ccc(C#CC3(O)COC3)cc21 [Compound I-111, (S)-4-(4-fluorophenoxy)-N-(7-((3-hydroxyoxetan-3-yl)ethynyl)-5-methyl-4-oxo-2,3,4,5-tetrahydrobenzo[b][1,4]oxazepin-3-yl)picolinamide]",21.8 nM,99.9 nM,3.1 nM,,,,,
"CN1C(=O)[C@@H](NC(=O)c2ncn(Cc3ccccc3)n2)COc2ccc(C#CC3(O)CCCC3)cc21 [Compound I-52, (S)-1-benzyl-N-(7-((1-hydroxycyclopentyl)ethynyl)-5-methyl-4-oxo-2,3,4,5-tetrahydrobenzo[b][1,4]oxazepin-3-yl)-1H-1,2,4-triazole-3-carboxamide]",24.9 nM,0.3 nM,0.9 nM,,,,,
"CN1CC(O)(C#Cc2ccc3c(c2)N(C)C(=O)[C@@H](NC(=O)c2cc(Oc4ccccc4)ccn2)CO3)C1 [Compound I-137, (S)—N-(7-((3-hydroxy-1-methylazetidin-3-yl)ethynyl)-5-methyl-4-oxo-2,3,4,5-tetrahydrobenzo[b][1,4]oxazepin-3-yl)-4-phenoxypicolinamide]",23.6 nM,,,333 nM,5 nM,,,
"CN1C(=O)[C@@H](NC(=O)c2cc(Oc3ccccc3)ccn2)COc2ccc(C#CC3(OC(=O)CCC(=O)O)COC3)cc21 [Compound I-165, (S)-4-((3-((5-methyl-4-oxo-3-(4-phenoxypicolinamido)-2,3,4,5-tetrahydrobenzo[b][1,4]oxazepin-7-yl)ethynyl)oxetan-3-yl)oxy)-4-oxobutanoic acid 2-amino-2-(hydroxymethyl)propane-1,3-diol salt]",11.2 nM,,,,,47.1 nM,0.9 nM,
"CC(C)Cn1cnc(C(=O)N[C@H]2COc3ccc(C#CC(C)(C)O)cc3N(C)C2=O)n1 [Compound I-85, (S)—N-(7-(3-hydroxy-3-methylbut-1-yn-1-yl)-5-methyl-4-oxo-2,3,4,5-tetrahydrobenzo[b][1,4]oxazepin-3-yl)-1-isobutyl-1H-1,2,4-triazole-3-carboxamide]",42.3 nM,0.6 nM,3.3 nM,,,,,
"CN1C(=O)[C@@H](NC(=O)c2n[nH]c(Cc3ccccc3)n2)COc2ccc(CCCO)cc21 [Compound I-14, (S)-5-benzyl-N-(7-(3-hydroxypropyl)-5-methyl-4-oxo-2,3,4,5-tetrahydrobenzo[b][1,4]oxazepin-3-yl)-1H-1,2,4-triazole-3-carboxamide]",73 nM,5880 nM,11.4 nM,,,,,
"CN1C(=O)[C@@H](NC(=O)c2n[nH]c(Cc3ccc(F)cc3)n2)COc2ccc(C#CC(C)(C)O)cc21 [Compound I-79, (S)-5-(4-fluorobenzyl)-N-(7-(3-hydroxy-3-methylbut-1-yn-1-yl)-5-methyl-4-oxo-2,3,4,5-tetrahydrobenzo[b][1,4]oxazepin-3-yl)-1H-1,2,4-triazole-3-carboxamide]",34.7 nM,0.8 nM,5.1 nM,,,,,
"CN1C(=O)[C@@H](NC(=O)c2n[nH]c(Cc3ccccc3)n2)COc2ccc(C#CC(C)(C)O)cc21 [Compound I-30, (S)-5-benzyl-N-(7-(3-hydroxy-3-methylbut-1-yn-1-yl)-5-methyl-4-oxo-2,3,4,5-tetrahydrobenzo[b][1,4]oxazepin-3-yl)-1H-1,2,4-triazole-3-carboxamide]",,72.3 nM,3.6 nM,,,,,40.2 nM
"CN1CCN(C(C)(C)C#Cc2ccc3c(c2)N(C)C(=O)[C@@H](NC(=O)c2cc(Oc4ccccc4)ccn2)CO3)CC1 [Compound I-158, (S)—N-(5-methyl-7-(3-methyl-3-(4-methylpiperazin-1-yl)but-1-yn-1-yl)-4-oxo-2,3,4,5-tetrahydrobenzo[b][1,4]oxazepin-3-yl)-4-phenoxypicolinamide]",,1640 nM,9.5 nM,,,,,14.7 nM
"CN1C(=O)[C@@H](NC(=O)n2cc(Cc3ccccc3)cn2)COc2ccc(C#Cc3ccccn3)cc21 [Compound I-215, (S)-4-Benzyl-N-(5-methyl-4-oxo-7-(pyridin-2-ylethynyl)-2,3,4,5-tetrahydrobenzo[b][1,4]oxazepin-3-yl)-1H-pyrazole-1-carboxamide]",32.1 nM,20.9 nM,0.3 nM,,,,,
"CN1C(=O)[C@@H](NC(=O)c2cc(Oc3ccccc3)ccn2)COc2ccc(C#CC3(O)CCS(=O)(=O)CC3)cc21 [Compound I-207, (S)—N-(7-((4-Hydroxy-1,1-dioxidotetrahydro-2H-thiopyran-4-yl)ethynyl)-5-methyl-4-oxo-2,3,4,5-tetrahydrobenzo[b][1,4]oxazepin-3-yl)-4-phenoxypicolinamide]",27.9 nM,116 nM,0.5 nM,,,,,
"CN1C(=O)[C@@H](NC(=O)c2n[nH]c(Cc3ccccc3F)n2)COc2ccc(C#CC(C)(C)O)cc21 [Compound I-80, (S)-5-(2-fluorobenzyl)-N-(7-(3-hydroxy-3-methylbut-1-yn-1-yl)-5-methyl-4-oxo-2,3,4,5-tetrahydrobenzo[b][1,4]oxazepin-3-yl)-1H-1,2,4-triazole-3-carboxamide]",20.6 nM,0.7 nM,2.7 nM,,,,,
"CN1C(=O)[C@@H](NC(=O)c2cc(Oc3ccccc3)ccn2)COc2ccc(C#CCO)cc21 [II-35, (S)—N-(7-(3-hydroxyprop-1-yn-1-yl)-5-methyl-4-oxo-2,3,4,5-tetrahydrobenzo[b][1,4]oxazepin-3-yl)-4-phenoxypicolinamide]",27.5 nM,164 nM,0.7 nM,,,,,
"CN1C(=O)[C@@H](NC(=O)c2cc(Oc3ccc(F)cc3)ccn2)COc2ccc(C#CC(C)(C)CO)cc21 [Compound I-148, (S)-4-(4-fluorophenoxy)-N-(7-(4-hydroxy-3,3-dimethylbut-1-yn-1-yl)-5-methyl-4-oxo-2,3,4,5-tetrahydrobenzo[b][1,4]oxazepin-3-yl)picolinamide]",33.7 nM,359 nM,5.2 nM,,,,,
"CN1C(=O)[C@@H](NC(=O)c2n[nH]c(Cc3ccccc3)n2)COc2ccc(CCCCO)cc21 [Compound I-15, (S)-5-benzyl-N-(7-(4-hydroxybutyl)-5-methyl-4-oxo-2,3,4,5-tetrahydrobenzo[b][1,4]oxazepin-3-yl)-1H-1,2,4-triazole-3-carboxamide]",136 nM,2200 nM,4.8 nM,,,,,
"COc1cccc(-c2ccnc(C(=O)N[C@H]3COc4ccc(C#CC(C)(C)O)cc4N(C)C3=O)c2)c1 [II-23, (S)—N-(7-(3-hydroxy-3-methylbut-1-yn-1-yl)-5-methyl-4-oxo-2,3,4,5-tetrahydrobenzo[b][1,4]oxazepin-3-yl)-4-(3-methoxyphenyl)picolinamide]",1280 nM,,545 nM,,,,,
